# Reference: patent US20080279961A1, “TELOMERE TARGETING AGENTS AS STEM CELLS DIRECTED TREATMENTS” (priority 2007, published 2008)
# “Also recorded” adds a separate entry of the source.
# Legend:
# UXF1138L xenografts [1] = settings: mouse, in vivo; cited from earlier work
# R1 prostate cancer cells = test: side population analysis; type: cell-based
# Excerpt: In one embodiment of the invention, cancer stem cells have shorter telomeres than other cancer cells (FIG. 7). Side population analysis was done to distinguish between cancer stem cells in R1 prostate cancer cells and […]. A primitive CD34^low/neg stem cell population has been defined in normal bone marrow, which has the unique capacity to efflux lipophilic dyes such as Hoechst 33342 as a result of high levels of expression of P-glycoprotein (MDRa/ABCB1) transporter and BCRP (breast cancer resistance protein, ABCG2). […] R1 is the parental prostate cancer cell line with a SP of 0.36% of cells of the total population (100%). […] Subclones of the R1 chemosensitive prostate cancer cell line that are resistant to the clinically used cytotoxic agents mitoxantrone and docetaxel, show a much expanded SP of 45% and 83% of cells respectively. In fact docetaxel resistant R1 cells are almost all stem cell like cells.
# UXF1138L xenografts [2] = test: tumor growth inhibition of subcutaneous xenografts; type: in vivo, nude mice
# [3] = tolerability in xenograft studies (body weight, deaths, MTD)
# Experimental: For the first in vivo experiment, tumor fragments (5×5 mm) from untreated donor animals were implanted subcutaneously into both flanks of recipient mice. Treatment was initiated 6 days after transplantation (=day 0, median tumor volume of ˜70 mm^3). Animals were randomized into groups following Lindner's randomization tables and treated by oral gavage with 5 mg/kg/d RHPS4 or vehicle (phosphate buffered saline) respectively (n=5-8 animals per group). […] Drug administration was repeated twice weekly for 8 times (Q3dx8) after randomization. Tumor growth was followed twice weekly by serial caliper measurement, body weights were recorded, and tumor volumes were calculated using the standard formula (length×width^2)/2, where length is the largest dimension and width the smallest dimension perpendicular to the length (Alley et al., 2004; Geran et al., 1972). The median relative tumor volume was plotted against time. Relative tumor volumes were calculated for each single tumor by dividing the tumor volume on day X by that on day 0 (time of randomization). Growth curves were analyzed in terms of tumor inhibition (treated/control, T/C, calculated as median tumor weight of treated divided by median tumor weight of control animals times 100). Statistical data analysis was done using non-parametrical Wilcoxon Mann-Whitney statistics. Median relative tumor volumes of each treatment group were compared with those of the vehicle control groups. P values less than 0.05 were considered statistically significant. SPSS 2000, SYSTAT version 10 software was used.
# To conduct combination treatment with Paclitaxel, after 4 serial propagations of RHPS4 treated tumor tissue in nude mice (FIG. 1), RHPS4 was combined with Paclitaxel. Single agent Paclitaxel was given at 20 mg/kg i.v. on days 1 and 15. In combination with RHPS4 (given at 5 mg/kg p.o. twice weekly), only a single dose of Paclitaxel (20 mg/kg i.v.) was administered on day 1. Tumor growth parameters and body weight were assessed as described above.
compound,measurement,setting,value
COc1cccc2c1C(=O)c1c(O)c3c(c(O)c1C2=O)C[C@@](O)(C(=O)CO)C[C@@H]3O[C@H]1C[C@H](N)[C@H](O)[C@H](C)O1 [doxorubicin],response of UXF1138L xenograft to standard chemotherapy,UXF1138L xenografts [1],resistant
COc1ccc2c3c([nH]c2c1)[C@H](CC(C)C)N1C(=O)[C@H](CCC(=O)OC(C)(C)C)NC(=O)[C@@H]1C3 [Ko143],effect on side population (SP),R1 prostate cancer cells,abolishes the SP
O=C1c2c(O)ccc(O)c2C(=O)c2c(NCCNCCO)ccc(NCCNCCO)c21 [mitoxantrone],response of UXF1138L xenograft to standard chemotherapy,UXF1138L xenografts [1],resistant
"CC(=O)O[C@H]1C(=O)[C@@]2(C)[C@H]([C@H](OC(=O)c3ccccc3)[C@]3(O)C[C@H](OC(=O)[C@H](O)[C@@H](NC(=O)c4ccccc4)c4ccccc4)C(C)=C1C3(C)C)[C@]1(OC(C)=O)CO[C@@H]1C[C@@H]2O [Paclitaxel, reference compound]",opt. Test/Control [%],"UXF1138L xenografts [2]; Passage #4, RHPS4 5 mg/kg p.o. twice weekly, Paclitaxel 20 mg/kg i.v.",8%
same,"CR, complete remission","UXF1138L xenografts [2]; Passage #4, tumors per group",2/12
same,"P, progression","UXF1138L xenografts [2]; Passage #4, tumors per group",3/12
same,"PR, partial regression","UXF1138L xenografts [2]; Passage #4, tumors per group",7/12
same,antitumor response in words,UXF1138L xenografts [2]; Passage #4 UXF1138L xenografts,has single agent activity; also recorded: transient remissions; also recorded: Minor remissions
same,"Deaths [n/n], drug related death per mice per group",[3]; Passage #4,0/6
same,"BWC, maximal median body weight change","[3]; mouse, in vivo",+6%
